Here are results for 4 compounds from paper PMC7845692 (Frontiers in Pharmacology, 2020).

One data set concerns Human coronavirus OC43. As to the kind of experiment: HCoV-OC43 immunofluorescent assay (IFA) against N protein in HCT-8 cells. The settings on record: for EC50: read-out: Human coronavirus OC43 EC50 (IFA); for Human coronavirus OC43 Selectivity index: CC50/EC50, HCT-8 cells. In kind it is cell-based.
For the next data set, the system named is HCoV-OC43. As to the kind of experiment: HCoV-OC43 viral yield, end point dilution assay / TCID50. In kind it is cell-based, Human coronavirus OC43. The settings on record: for complete reduction of HCoV-OC43 viral yield: HCT-8, MOI 0.05, supernatant 72 h.p.i., at 30, 100 and 300 nM respectively (dbq33b, dbq33b4p7, PI09); for concentration accomplishing complete reduction of HCoV-OC43 viral yield: HCT-8, MOI 0.05, reduction ∼7–8 log.

The subject of data set [1] is HCoV-229E. As to the kind of experiment: HCoV-229E viral RNA (ORF1, ORF N) by semi-RT-qPCR in MRC-5 cells. Type of data set: cell-based, Human coronavirus 229E. The settings on record: MRC-5, MOI 1, 30 h.p.i., 10–300 nM, dose dependent. How it is done: These experiments were performed as described ([Yang et al., 2007b]). Mock or HCoV-229E infected (MOI of 1) lysates were processed and prepared at 30 h.p.i. without or with compound treatment. The total RNA was extracted with TRIzol reagent (Invitrogen). The relative viral RNA expression levels were determined by semi-RT-qPCR, analyzed with the ImageJ Analyzer program (http://imagej.nih.gov/ij/index.html), and normalized with the housekeeping gene GAPDH. The primers used to amplify the PCR products were 5′-GGCGAGGTGGAATTTGTTTA-3′ and 5′-ACCTTTAAGCCACCATGTGC-3′ for ORF1; 5′-TCTGCCAAGAGTCTTGCTCG-3′ and 5′-AGCATAGCAGCTGTTGACGG-3′ for ORF N. The amplification of target cDNA was conducted under the following conditions: 25 cycles of 95°C for 30 s, 55°C for 20 s, and 72°C for 30 s for ORF N; 29 cycles of 95°C for 30 s, 55°C for 20 s, and 72°C for 30 s for ORF1, and 35 cycles of 95°C for 30 s, 55°C for 20 s, and 72°C for 30 s for GAPDH. The final PCR products were subjected to electrophoresis on 2% agarose gel containing ethidium bromide along with DNA markers.
For orientation: Quantitative PCR measures a nucleic acid by following its amplification.

In data set [2] the test system is SARS-CoV-2. As to the kind of experiment: SARS-CoV-2 cytopathic effect by visualization in Vero E6 cells. The settings on record: for SARS-CoV-2 Selectivity index (CPE/visualization): CC50/EC50, Vero E6 cells; for EC50: Severe acute respiratory syndrome coronavirus 2, Vero C1008, Vero E6 cells, means from duplicate, read-out: SARS-CoV-2 EC50 CPE/visualization. In kind it is cell-based. The protocol:
(§1) CPE was performed as described ([Wu et al., 2004]). For IFA, Vero E6 cells (BCRC number: 60476; derived from ATCC CRL-1586) were treated with each compound at the indicated concentration for 1 h at 37°C. The cells were adsorbed with SARS-CoV-2 (TCDC#4) (sequence available on the GISAID website) at an MOI = 0.01 for 1 h at 37°C. After virus adsorption, the cells were washed with PBS and fresh medium containing each compound at the indicated concentration was added. After 2 days, cells were fixed with 4% paraformaldehyde and permeabilized with 0.5% Triton X-100. The cells were stained with anti-SARS-CoV-2 N protein antibody, provided by Dr. An-Suei Yang of the Genomics Research Center, Academia Sinica, and goat anti-human IgG-Alexa Fluor 488 (A11013, Invitrogen) (in green). The nuclei were counter stained with DAPI (in blue) (D1306, Invitrogen). The N protein expression was measured using a high-content image analysis system (Molecular Devices). The cell viability was determined by Cell Counting Kit-8 (CCK-8) (Sigma-Aldrich, cat #96992). EC50 and CC50 values were calculated by Prism software.
On the technique in general: Cytopathic effects are the visible damage that an infection or toxin causes in cultured cells.

Data set [3] in a line: Vero E6 cytotoxicity by visualization. In kind it is cell-based. The settings on record: African green monkey, Vero E6 cells; read-out: SARS-CoV-2 CC50 Visualization. How it is done: as §1
The test system of data set [4] is SARS-CoV-2. As to the kind of experiment: SARS-CoV-2 IFA against N protein in Vero E6 cells. In kind it is cell-based. The following applies: for SARS-CoV-2 Selectivity index (IFA/CCK-8): CC50/EC50, Vero E6 cells. The protocol:
as §1

A short description of data set [5]: Vero E6 cell viability (CCK-8). In kind it is cell-based. The following applies: African green monkey, Vero E6 cells; read-out: SARS-CoV-2 CC50 CCK-8. The protocol: as §1
The subject of data set [6] is SARS-CoV-2. As to the kind of experiment: microbe, parasite or virus in culture. Type of data set: cell-based.
Data set [7] can be described thus: in vitro. The following applies: human, MRC-5 cells.
A short description of data set [8]: HCT-8 cell viability (MTS). The following applies: human, HCT-8 cells.
Data set [9] is described as follows: cell cytotoxicity by visualization (FIPV host cells). The following applies: cat.
Experimental: (§2) The serotype II FIPV Taiwan isolate NTU156 strain, a kind gift from National Taiwan University, was propagated and titrated in Fcwf-4 cells ([Lin et al., 2009]). The EC50 for anti-FIPV activity and CC50 for cell cytotoxicity were determined as previously described ([Yang et al., 2020b]).
Data set [10] deals with HCoV-229E. As to the kind of experiment: HCoV-229E viral yield, end point dilution assay / TCID50. The following applies: MRC-5, MOI 0.05; for complete reduction of HCoV-229E viral yield: at 100, 300 and 600 nM respectively (dbq33b, dbq33b4p7, PI09); for concentration giving complete reduction of HCoV-229E viral yield: reduction 6–7 log.
In the next data set the test system is Human coronavirus 229E. As to the kind of experiment: HCoV-229E cytopathic effect, crystal violet absorbance in MRC-5 cells. The following applies: CC50/EC50, MRC-5 cells.
The subject of data set [11] is Feline infectious peritonitis virus. As to the kind of experiment: anti-FIPV activity, cytopathic effect by visualization in Fcwf-4 cells. The following applies: for EC50: Alphacoronavirus 1, read-out: Feline infectious peritonitis virus EC50 CPE/visualization; for Feline infectious peritonitis virus Selectivity index: CC50/EC50, Fcwf-4 cells.
Experimental: as §2
A short description of data set [12]: in vitro. The following applies: cat.
Experimental: as §2
Data set [13] in a line: in vitro. The following applies: human.
[14] abbreviates: Betacoronavirus 1, OC43, HCT-8, 72 h.
[15] abbreviates: Severe acute respiratory syndrome coronavirus 2, Vero C1008, 48 h, read-out: SARS-CoV-2 EC50 IFA, Vero E6 cells, MOI 0.01, 2 d.p.i., N protein.
Setting [16] is: Vero E6 cells, MOI 0.01, 2 d.p.i., N protein, read-out: SARS-CoV-2 EC50 IFA.

Structures can show the parent of a compound that is named as a salt. Where two headings read alike, the source gives them in different places.

Consider `CCN1Cc2c(c3ccc(OC)cc3c3cc(OC)c(OC)cc23)C(O)C1` (stereo not drawn) [dbq33b], for which the EC50 in the data set with Human coronavirus OC43 (setting [14]) is 16 ± 5 nM; in the data set on SARS-CoV-2 [2] it was 2.5 nM; in the data set with SARS-CoV-2 [4] (setting [15]), 14 nM; in the data set on SARS-CoV-2 [4] (setting [16]), 13.9 nM; with SARS-CoV-2 [6] (Severe acute respiratory syndrome coronavirus 2, Vero C1008, read-out: SARS-CoV-2 plaque assay EC50, Vero E6 cells), 14 nM; with SARS-CoV-2 [6] (Severe acute respiratory syndrome coronavirus 2, Vero C1008, read-out: SARS-CoV-2 plaque assay EC50, Vero E6 cells, 5–7 days, Figure 5B-b), 13.8 ± 0.3 nM. In addition, the EC50 in data set [11] came to 8 ± 2 nM. Further, the “Human coronavirus OC43 Selectivity index” value with Human coronavirus OC43 is reported as above 610. In addition, in the data set on HCoV-OC43, the “complete reduction of HCoV-OC43 viral yield” value is 7–8 log of magnitudes. Also, in the data set with HCoV-OC43, the “concentration accomplishing complete reduction of HCoV-OC43 viral yield” value stood at 30 nM. For the same compound, the “effect on HCoV-229E viral genome replication and subgenomic viral RNA syntheses (RT-PCR ORF1, ORF N)” value with HCoV-229E [1] is “inhibited HCoV-229E viral genome replication and subgenomic viral RNA syntheses”. Also, in the data set on SARS-CoV-2 [2], the “SARS-CoV-2 Selectivity index (CPE/visualization)” value amounted to 500. Moreover, the CC50 in data set [3] amounted to 1250 nM; in data set [5] it was 5100 nM; in “in vitro [7]”, 1710 nM; in data set [9], 3120 nM. Besides, the “SARS-CoV-2 Selectivity index (IFA/CCK-8)” value in the data set with SARS-CoV-2 [4] was determined as 367. This compound gave a CC50 at 72 h in data set [8] above 10000 nM. Also, the “complete reduction of HCoV-229E viral yield” value in the data set with HCoV-229E [10] is recorded as 6–7 log of magnitudes. The “concentration giving complete reduction of HCoV-229E viral yield” value with HCoV-229E [10] was 100 nM. For the same compound, the “Human coronavirus 229E Selectivity index” value in the data set with Human coronavirus 229E is 264. The “Feline infectious peritonitis virus Selectivity index” value in data set [11] is 390.6.

For the compound `CCN1Cc2c(c3ccc(OC)cc3c3cc(OC)c(OC)cc23)C(O)C1C` (stereo not drawn) [dbq33b4p7], the EC50 with Human coronavirus OC43 (setting [14]) was 56 ± 6 nM; with SARS-CoV-2 [2] it was 20 nM; in the data set on SARS-CoV-2 [4] (setting [15]), 32 nM; with SARS-CoV-2 [4] (setting [16]) it was 31.9 nM; in [11], 20 ± 7 nM. The “Human coronavirus OC43 Selectivity index” value in the data set on Human coronavirus OC43 is recorded as above 179. In addition, the “complete reduction of HCoV-OC43 viral yield” value in the data set on HCoV-OC43 is 7–8 log of magnitudes. In addition, the “concentration accomplishing complete reduction of HCoV-OC43 viral yield” value with HCoV-OC43 is reported as 100 nM. For the same compound, the “effect on HCoV-229E viral genome replication and subgenomic viral RNA syntheses (RT-PCR ORF1, ORF N)” value in the data set with HCoV-229E [1] was “inhibited HCoV-229E viral genome replication and subgenomic viral RNA syntheses”. In the data set on SARS-CoV-2 [2], the “SARS-CoV-2 Selectivity index (CPE/visualization)” value is recorded as 125. Further, the CC50 in data set [3] was 2500 nM; in data set [5] it was 2970 nM; in the data set “in vitro [7]”, 7360 nM; in data set [9], 6250 ± 2160 nM. Further, the “SARS-CoV-2 Selectivity index (IFA/CCK-8)” value in the data set on SARS-CoV-2 [4] was found to be 93. This compound also had a CC50 at 72 h in [8] above 10000 nM. Further, the “complete reduction of HCoV-229E viral yield” value in the data set on HCoV-229E [10] is given as 6–7 log of magnitudes. Moreover, the “concentration giving complete reduction of HCoV-229E viral yield” value with HCoV-229E [10] was 300 nM. Further, in the data set with Human coronavirus 229E, the “Human coronavirus 229E Selectivity index” value was determined as 290. Further, the “Feline infectious peritonitis virus Selectivity index” value in [11] was determined as 312.5.

As to `C[C@H]1O[C@@H](O[C@H]2[C@@H](O)C[C@H](O[C@H]3[C@@H](O)C[C@H](O[C@H]4CC[C@@]5(C)[C@H](CC[C@@H]6[C@@H]5CC[C@]5(C)[C@@H](C7=CC(=O)OC7)CC[C@]65O)C4)O[C@@H]3C)O[C@@H]2C)C[C@H](O)[C@@H]1O` [Digitoxin, digitoxin], the EC50 was 88 ± 16 nM in the data set with Human coronavirus OC43 (Betacoronavirus 1, OC43, HCT-8 cells, MOI 0.05, 72 h.p.i., means ± SD) and 97 ± 6 nM in data set [11]. In the data set on Human coronavirus OC43, the “Human coronavirus OC43 Selectivity index” value stood at 10.3. The CC50 in the data set “in vitro [12]” came to 825 ± 195 nM; in the data set “in vitro [13]” it was 909 ± 123 nM. The “Feline infectious peritonitis virus Selectivity index” value in data set [11] is 8.5.

Consider `C[C@]12CCC(=NOCCN)C[C@@H]1C(=O)C[C@@H]1[C@@H]2CC[C@]2(C)C(=O)CC[C@@H]12` [Istaroxime, istaroxime hydrochloride], for which, in the data set with Human coronavirus OC43 (setting [14]), the EC50 turned out to be 5420 ± 268 nM. Moreover, the “Human coronavirus OC43 Selectivity index” value with Human coronavirus OC43 is reported as 5.9. Further, the CC50 in “in vitro [12]” was determined as 7120 ± 750 nM. In the data set “in vitro [13]”, this compound yielded a CC50 at 72 h of 32000 nM. Also, in data set [11], the EC50 was determined as 2160 nM and the “Feline infectious peritonitis virus Selectivity index” value is on record as 3.3.
